Here are results for 16 molecules from article PMC4627826, “Synthesis and Biological Evaluation of Novel Gigantol Derivatives as Potential Agents in Prevention of Diabetic Cataract” (PLoS ONE, 2015).

The target in data set [1] is T1, aldose reductase (AR) (Homo sapiens, UniProt P15121).
T1 construct: purchased Prospec-TanyTechnogene Ltd. (Israel)
As to the kind of experiment: AR inhibition assay (NADPH absorbance decrease at 340 nm, DL-glyceraldehyde substrate). It is filed as biochemical. Particulars: for IC50: mean ± SD (n = 3), NA = no activity. On the procedure: AR was purchased from Prospec-TanyTechnogene Ltd. (Israel). AR activity was evaluated as previously described. Briefly, the reaction mixture was composed of enzyme solution ([…], 20 μL), NADPH (0.104 mmol·L^-1, 50 μL; Italian Roth, Italy), DL-glyceraldehyde (10 mmol·L^-1, 50 μL; Sigma, U.S.), buffer phosphate (0.1 mol·L^-1), and selected concentrations of test compounds. The reaction was initiated by the addition of DL-glyceraldehyde as the substrate, and PBS was used as the blank control. The use of NAPDH, in parallel to AR activity, was monitored at room temperature for 10 min at 40 s intervals at 340 nm in an EnSpire™ Multimode Plate Reader. […] All assays were performed in triplicate.

The target of data set [2] is inducible nitric oxide synthase (iNOS) (Homo sapiens, UniProt P35228). As to the kind of experiment: iNOS inhibition assay (Nitric Oxide Synthase Assay Kit, NO production). It is filed as biochemical. The conditions noted are these: mean ± SD (n = 3); NA = no activity; read-out: IC50, inhibitory effect on iNOS activity. On the procedure: iNOS produces NO by catalyzing a reaction involving L-Arg and oxygen. Its activity was assessed by monitoring NO production using a Nitric Oxide Synthase Assay Kit (Nanjing Jiancheng Bioengineering Institute, China), which was developed based on the method of Fröhlich et al.. […] All assays were performed in triplicate.

In data set [3] the test system is human lens epithelial cells (HLECs; SRA 01/04). As to the kind of experiment: Cell viability (MTT) of HLECs treated with D-galactose. The conditions noted are these: for protection of HLECs from apoptosis (concentration not given): D-galactose-induced, tested at 0.1, 0.5, 1.0 μg·mL^-1. It is filed as cell-based. The method, then:
Human lens epithelial cells (HLECs; SRA 01/04) were obtained from Dr. Fu Shang, USDA HNRCA at Tufts University, Boston, MA, U.S. and Zhongshan Ophthalmic Center, Sun Yat-sen University, Guangzhou, P. R. China and cultured in minimal essential medium (MEM) supplemented with 20% fetal bovine serum (FBS) and a cocktail of Penicillin-Streptomycin at 37°C in a humid environment containing 5% CO2 [52]. Cells were harvested at 80% confluency by trypsinization, and then fresh culture medium was added to generate single-cell suspensions for use in cell viability assays. HLECs were then seeded in 96-well cell culture grade microplates at a density of 1 × 10^5·mL^-1. After 24 h of incubation, the cells were treated for 72 h with 250 mmol·L^-1 D-galactose with and without test compounds (0.1, 0.5, or 1.0 μg·mL^-1).
Cell viability was assessed using an MTT assay. After the treatments, 20 μL of 5 mg·mL^-1 MTT solution was added to each well, followed by incubation for 4 h at 37°C. The resulting formazan crystals were then dissolved in 150 μL DMSO and absorbance measured at 570 nm using an EnSpire™ Multimode Plate Reader. The results are presented as percentages of cell survival as compared to the untreated control group, and all assays were performed in triplicate.

Setting [4] is: read-out: IC50, inhibitory effect on AR activity.
Where [5] appears, read: compound at 0.5 μg·mL^-1, 250 mmol·L^-1 D-galactose, 72 h.
Where [6] appears, read: compound at 1.0 μg·mL^-1, 250 mmol·L^-1 D-galactose, 72 h.
Where [7] appears, read: compound at 0.1 μg·mL^-1, 250 mmol·L^-1 D-galactose, 72 h.

Molecules are shown by their SMILES. Read-outs that look alike come from different tables or passages of the source.

In general, IC50 refers to the concentration that inhibits the measured activity by half. What is called melting point is the temperature, or range, at which the solid turns liquid.

As to `COc1cc(CCc2cc(OC)cc(OC)c2)cc(OC)c1` [Compound 4, 1,2-bis(3,5-dimethoxyphenyl)ethane], the melting point lay within 104.6 to 107.9 °C. Also, the half-inhibitory concentration (IC50) in data set [1] (setting [4]) amounted to 347 ± 3.74 µM.
As for `Oc1cc(O)cc(CCc2cc(O)cc(O)c2)c1` [Compound 5, 5,5'-(ethane-1,2-diyl)dibenzene-1,3-diol5,5'-(ethane-1,2-diyl)dibenzene-1,3-diol], the melting point was 245.9 to 248.1 °C. Further, the IC50 in data set [1] (setting [4]) came out at 288.8 ± 2.16 µM. In data set [2], the 50% inhibitory concentration (IC50) was determined as 432.6 ± 2.37 µM. Further, the “protection of HLECs from apoptosis (concentration not given)” value (shortened to “protection … (concentration not given)”) in data set [3] is reported as “protected HLECs from apoptosis”. Besides, the “protection of HLECs from D-galactose-induced apoptosis” value in data set [3] (setting [5]) was “protected HLECs from apoptosis”.
As to `CN(C)c1ccc(CCc2cc(O)cc(O)c2)cc1` [Compound 8], the melting point was in the range of 152.5 to 154.1 °C. In addition, the half-maximal inhibitory concentration (IC50) in data set [1] (setting [4]) was 513.4 ± 2.33 µM. Besides, the “protection … (concentration not given)” value in data set [3] is reported as “protected HLECs from apoptosis”. Moreover, the “protection of HLECs from D-galactose-induced apoptosis” value in data set [3] (setting [6]) is “protected HLECs from apoptosis”.
`COc1cc(O)cc(CCc2cccc3ccccc23)c1` [Compound 10, 3-methoxy-5-(2-(naphthalen-1-yl)ethyl)phenol]: the melting point lay in the range of 103.9 to 106.7 °C. The IC50 in data set [1] (setting [4]) was 31.2 ± 1.51 µM. The “potency in AR inhibition relative to synthetic gigantol (compound 14f)” value in data set [1] (more potent than 14f) is listed as 9 fold. Further, the half-inhibitory concentration (IC50) in data set [2] was determined as 1189 ± 3.31 µM. In addition, in data set [3] (250 mmol·L^-1 D-galactose, 72 h, MTT, compounds at 0.1, 0.5 or 1.0 μg·mL^-1, percentage of Con), the “cell survival (viability) of HLECs against D-galactose-induced apoptosis” value is reported as 72.26%. Moreover, the “protection … (concentration not given)” value in data set [3] is “protected HLECs from apoptosis”. In data set [3] (setting [5]), the “protection of HLECs from D-galactose-induced apoptosis” value was “protected HLECs from apoptosis”.
With `COc1cc(CCc2cc(OC)c(O)c(OC)c2)ccc1O` [Compound 14a, 4-(4-hydroxy-3-methoxyphenethyl)-2,6-dimethoxyphenol], in data set [1] (setting [4]), the half-maximal inhibitory concentration (IC50) worked out at 17.3 ± 1.72 µM.
For the molecule `COc1cc(CCc2cccc(OC)c2O)ccc1O` [Compound 14b, 4-(2-hydroxy-3-methoxyphenethyl)-2-methoxyphenol], the IC50 in data set [1] (setting [4]) is 126 ± 1.3 µM; in data set [2], 433.6 ± 4.23 µM. In data set [3], the “protection … (concentration not given)” value was “protected HLECs from apoptosis”. Moreover, the “protection of HLECs from D-galactose-induced apoptosis” value in data set [3] (setting [7]) is “protected HLECs from apoptosis”.
Take `COc1cc(CCc2ccc(O)c(O)c2)ccc1O` [Compound 14c, 4-(4-hydroxy-3-methoxyphenethyl)benzene-1,2-diol]: the concentration for half-maximal inhibition (IC50) in data set [1] (setting [4]) amounted to 534 ± 5.44 µM.
Still for that read-out and setting: under `COc1cc(CCc2ccc(O)c(OC)c2)cc(OC)c1` [Compound 14d, 4-(3,5-dimethoxyphenethyl)-2-methoxyphenol] stands 39.2 ± 2.13 µM.
Same read-out and setting: the figure for `COc1cc(CCc2cc(Cl)ccc2O)ccc1O` [Compound 14e, 4-chloro-2-(4-hydroxy-3-methoxyphenethyl)phenol] is 21.8 ± 5.47 µM.
In the case of `COc1cc(O)cc(CCc2ccc(O)c(OC)c2)c1` [Compound 14f, 4-[2-(3-hydroxy-5-methoxyphenyl)ethyl]-2-methoxyphenol], the figures for the 50% inhibitory concentration (IC50) in data set [1] (setting [4]) and in data set [2] were 176 ± 3.21 µM and 680.1 ± 3.28 µM, respectively.
Molecule `COc1ccc(CCNCc2ccc(O)cc2)cc1OC` [Compound 17b, 4-((3,4-dimethoxyphenethylamino)methyl)phenol] had a melting point of 116.7 to 118.6 °C. In data set [1] (IC50, inhibitory effect on AR activity), this molecule returned a 50% inhibitory concentration (IC50) of 174 ± 3.38 µM.
With `COc1ccc(CNc2nc3ccccc3s2)c(O)c1` [Compound 17c, 2-((benzo[d]thiazol-2-ylamino)methyl)-5-methoxyphenol], the melting point lay within 184.3 to 185.7 °C. Moreover, the IC50 in data set [1] (setting [4]) turned out to be 243 ± 5.67 µM. Also, the “protection … (concentration not given)” value in data set [3] is reported as “protected HLECs from apoptosis”. Also, in data set [3] (setting [7]), the “protection of HLECs from D-galactose-induced apoptosis” value is “protected HLECs from apoptosis”.
On to `Oc1cc(O)cc(CCCc2ccc(F)cc2)c1` [Compound 21, 5-(3-(4-fluorophenyl)propyl)benzene-1,3-diol], for which the 50% inhibitory concentration (IC50) in data set [1] (setting [4]) came to 556.3 ± 4.37 µM.
On the same count and under the same terms, the figure for `Cc1ccc(S(=O)(=O)Nc2ccc(O)cc2)cc1` [Compound 23, N-(4-hydroxyphenyl)-4-methylbenzenesulfonamide] is 5.02 ± 2.57 µM.
Turning to `COc1ccc(CCNC(=O)Cc2ccc(O)cc2)cc1OC` [Compound 25, N-(3,4-dimethoxyphenethyl)-2-(4-hydroxyphenyl)acetamide], the melting point fell in the range of 151.7 to 153.2 °C. The IC50 in data set [1] (setting [4]) is 54.4 ± 2.39 µM.
With `COc1cc(O)cc(CCc2ccc(O)c(OC)c2)c1` [Extractive gigantol, 4-[2-(3-hydroxy-5-methoxyphenyl)ethyl]-2-methoxyphenol, reference compound], the concentration for half-maximal inhibition (IC50) in data set [1] (setting [4]) came to 2517 ± 10.3 µM; in data set [2] it was 32.2 ± 2.61 µM. For the same molecule, in data set [3], the “protection … (concentration not given)” value is “protected HLECs from apoptosis”. Also, the “protection of HLECs from D-galactose-induced apoptosis” value in data set [3] (setting [6]) is “protected HLECs from apoptosis”.
